Among the data in patent US11639503B2, “Anti-chymase aptamer and use for same” (RIBOMIC INC., priority 2017, dated 2023) are IC50 values, retold here.

For this series, the target named is T1, chymase purified from human skin mast cell (native, Calbiochem) (Homo sapiens, UniProt P23946).
T1 construct: Here, the native is chymase purified from human skin mast cell; purchased Calbiochem; host or cells: human skin mast cell (tissue-derived)
T1 sequence (P23946 22-247): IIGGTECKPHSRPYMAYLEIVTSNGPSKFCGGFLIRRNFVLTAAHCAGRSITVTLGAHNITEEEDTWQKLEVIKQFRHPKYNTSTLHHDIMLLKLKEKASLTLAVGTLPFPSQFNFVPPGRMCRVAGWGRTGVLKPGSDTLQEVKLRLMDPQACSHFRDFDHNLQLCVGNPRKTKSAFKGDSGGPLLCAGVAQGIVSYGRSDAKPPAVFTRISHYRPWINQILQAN
The experiment in a line: chymase enzyme activity inhibition, native substrate angiotensin I (His-Leu fluorescence). It is filed as biochemical. To be noted: angiotensin I as substrate, mean of 2 or 3 measurements. The protocol: A second method of evaluation employs a native substrate. A useful native substrate for chymase is angiotensin I. Here, His-Leu, a peptide fragment released upon degradation of angiotensin I, is fluorescently derivatized, and the fluorescence intensity therefrom is quantified.
In the assay, an enzyme reaction is carried out in 50 μL of solution C. First, 0.3-0.75 ng of chymase (recombinant, manufactured by SIGMA; or native, manufactured by Calbiochem) is diluted in solution C to obtain 5 μL chymase solution. Each nucleic acid is prepared in solution C to obtain 25 μL solutions. 5 μL of each chymase dilution and 25 μL of each nucleic acid solution are mixed, and then the mixture is incubated at 37° C. for 5 minutes. Separately, 20 μL of 125 μM angiotensin I (manufactured by Peptide Institute, Inc.) is prepared in solution C and incubated at 37° C. for 5 minutes. The angiotensin I solution is added to the mixture of chymase and nucleic acid, and the enzyme reaction is initiated. After the reaction was allowed to proceed at 37° C. for 90 minutes, 25 μL of ice-cooled 30% trichloroacetic acid solution is added to terminate the reaction. The entire mixture is centrifuged at 4° C., 14000 rpm for 10 minutes, and 30 μL of the resulting supernatant is used for the subsequent reaction for fluorescent derivatization.
After 30 μL of the supernatant is added to a 96-well plate (Black, manufactured by Costar), 15 μL of 2% o-phthalaldehyde (manufactured by SIGMA) solution in methanol and 170 μL of 0.3M NaOH solution are mixed in each well, and the plate is allowed to stand at room temperature for 10 minutes. Subsequently, 25 μL of 3M HCl solution is added to terminate the reaction. The plate is set to the microplate reader SpectraMax190 (manufactured by Molecular Devices Corporation), and the fluorescence intensity is determined at an excitation wavelength of 355 nm and a fluorescence wavelength of 460 nm.
For control, samples are treated and analyzed in the same manner in two cases: use of SEQ ID NO: 58 (negative control) and use of chymostatin, a known chymotrypsin-like serine protease inhibitor (positive control). In both cases, fluorescence intensity obtained at 0 minute reaction time serves as a blank determination. Taking the fluorescence intensity detected with the addition of an equal volume of solution C, in place of each nucleic acid, in the chymase enzyme reaction as 100%, the inhibitory rate for each test substance is calculated, and the inhibitor concentration required to cause a 50% inhibition of the enzyme activity (IC50) is determined.
Whether the nucleic acids shown by SEQ ID NO: 9 and 10 inhibit the enzyme activity of chymase was determined by the following method. Angiotensin I is converted by chymase to angiotensin II, during which a peptide fragment His-Leu is released. Since the peptide His-Leu is fluorescently derivatized by o-phthalaldehyde, its fluorescence intensity can be quantitatively measured.
The total volume of solution for an enzyme reaction in the assay was set to 50 μL, and the reaction was performed in solution C buffer. At first, native (manufactured by Calbiochem) was diluted with solution C to give 5 μL thereof. Here, the native is chymase purified from human skin mast cell. The nucleic acid was serially diluted with solution C at a concentration of 0.0027-2 μM to give 25 μL thereof. The chymase solution (5 μL) and the nucleic acid solution (25 μL) were mixed, and the mixture was incubated at 37° C. for 5 min. On the other hand, […] angiotensin I (manufactured by PEPTIDE INSTITUTE, INC.) was prepared in solution C to give 20 μL thereof, which was incubated at 37° C. for 5 min. The angiotensin I solution was added to a mixture of chymase and nucleic acid to start an enzyme reaction. The final chymase concentration of the reaction solution was 0.5 nM, and the final substrate concentration was 50 μM. […]

Where [1] appears, read: Table 3, >1 = no inhibitory activity up to 1 μM.

As to “11 (GGGUCAGAUGAUCGGACAUAACAUUGUUGGGGUGUCAAGGCCC; 2'-fluoro at CU, RNA at AG, backbone not given here) [compound 11]”, under setting [1], the IC50 amounted to 54.7 nM. In other words, the double-digit nanomolar range. In turn, “12 (GACAUAACAUUGUUGGGGUGUC; 2'-fluoro at CU, RNA at AG, backbone not given here) [compound 12]” came in with an IC50 under setting [1] of more than 1000 nM. The substance “13 (GGACAUAACAUUGUUGGGGUGUCAAGG; 2'-fluoro at CU, RNA at AG, backbone not given here) [compound 13]” had an IC50 under setting [1] of more than 1000 nM. Same read-out and setting: the result for “14 (GGCAGAUGAUCGGACAUAACAUUGUUGGGGUGUCAAGCC; 2'-fluoro at CU, RNA at AG, backbone not given here) [compound 14]” reads 6.8 nM; that for “15 (GAUGAUCGGACAUAACAUUGUUGGGGUGUCAAGCC; 2'-fluoro at CU, RNA at AG, backbone not given here) [compound 15]”, 1.4 nM; that for “16 (GGCAGAUGAUCGGACAUAACAUUGUUGGGGUGUCAA; 2'-fluoro at CU, RNA at AG, backbone not given here) [compound 16]”, 2 nM. In the case of “17 (GAUGAUCGGACAUAACAUUGUUGGGGUGUCAA; 2'-fluoro at CU, RNA at AG, backbone not given here) [compound 17]”, the IC50 reads like this: under setting [1], 1.4 nM; (Table 4) 1.4 nM; (Table 6) 1.4 nM. As to “17(1) (GAUGAUCGGACAUAACAUUGUUGGGGUGUCAA; 2'-O-methyl, idT end and other modifications, positions not given here)”, under “Table 4”, half-maximal inhibition (IC50) required 44.4 nM.

Take “17(2) (GAUGAUCGGACAUAACAUUGUUGGGGUGUCAA; aptamer; 2'-O-methyl, idT end and other modifications, positions not given here)”: for the setting “Table 4”, it took 0.21 nM to reach half-maximal inhibition (IC50). Same read-out and setting: to “17(3) (GAUGAUCGGACAUAACAUUGUUGGGGUGUCAA; aptamer; 2'-O-methyl, idT end and other modifications, positions not given here)” belongs 5.66 nM; to “17(4) (GAUGAUCGGACAUAACAUUGUUGGGGUGUCAA; aptamer; 2'-O-methyl, idT end and other modifications, positions not given here)”, 0.2 nM; to “17(5) (GAUGAUCGGACAUAACAUUGUUGGGGUGUCAA; aptamer; 2'-O-methyl, idT end and other modifications, positions not given here)”, 0.17 nM. On the same count and under the same terms, to “17(6) (GAUGAUCGGACAUAACAUUGUUGGGGUGUCAA; aptamer; 2'-O-methyl, idT end and other modifications, positions not given here)” belongs 0.14 nM; to “17(7) (GAUGAUCGGACAUAACAUUGUUGGGGUGUCAA; aptamer; 2'-O-methyl, idT end and other modifications, positions not given here)”, 0.17 nM. The same measure, in the same setting: the result for “17(8) (GAUGAUCGGACAUAACAUUGUUGGGGUGUCAA; aptamer; 2'-O-methyl, idT end and other modifications, positions not given here)” reads 0.13 nM. Turning to “17(9) (GAUGAUCGGACAUAACAUUGUUGGGGUGUCAA; aptamer; 2'-O-methyl, idT end and other modifications, positions not given here)”, for the setting “Table 4”, the IC50 worked out at 0.16 nM. The same measure, in the same setting: the result for “17(10) (GAUGAUCGGACAUAACAUUGUUGGGGUGUCAA; aptamer; 2'-O-methyl, idT end and other modifications, positions not given here)” reads 0.13 nM; that for “17(11) (GAUGAUCGGACAUAACAUUGUUGGGGUGUCAA; aptamer; 2'-O-methyl, idT end and other modifications, positions not given here)”, 0.14 nM; that for “17(15) (GAUGAUCGGACAUAACAUUGUUGGGGUGUCAA; aptamer; 2'-O-methyl, idT end and other modifications, positions not given here)”, 0.13 nM. For the substance “17(16) (GAUGAUCGGACAUAACAUUGUUGGGGUGUCAA; aptamer; 2'-O-methyl, idT end and other modifications, positions not given here)”, where the note is “Table 4”, the midpoint of inhibition, the IC50, lay at 0.18 nM. The same measure, in the same setting: to “17(17) (GAUGAUCGGACAUAACAUUGUUGGGGUGUCAA; aptamer; 2'-O-methyl, idT end and other modifications, positions not given here)” belongs 0.19 nM; to “17(18) (GAUGAUCGGACAUAACAUUGUUGGGGUGUCAA; aptamer; 2'-O-methyl, idT end and other modifications, positions not given here)”, 0.15 nM. The same measure, in the same setting: the result for “17(19) (GAUGAUCGGACAUAACAUUGUUGGGGUGUCAA; aptamer; 2'-O-methyl, idT end and other modifications, positions not given here)” reads 0.19 nM; that for “17(20) (GAUGAUCGGACAUAACAUUGUUGGGGUGUCAA; aptamer; 2'-O-methyl, idT end and other modifications, positions not given here)”, 0.18 nM; that for “17(21) (GAUGAUCGGACAUAACAUUGUUGGGGUGUCAA; aptamer; 2'-O-methyl, idT end and other modifications, positions not given here)”, 0.19 nM.

“17(22) (GAUGAUCGGACAUAACAUUGUUGGGGUGUCAA; aptamer; 2'-O-methyl, idT end and other modifications, positions not given here)” had an IC50 (Table 4) of 0.17 nM. The same measure, in the same setting: the result for “17(23) (GAUGAUCGGACAUAACAUUGUUGGGGUGUCAA; aptamer; 2'-O-methyl, idT end and other modifications, positions not given here)” reads 0.16 nM; that for “17(24) (GAUGAUCGGACAUAACAUUGUUGGGGUGUCAA; aptamer; 2'-O-methyl, idT end and other modifications, positions not given here)”, 0.19 nM.

For “17(25) (GAUGAUCGGACAUAACAUUGUUGGGGUGUCAA; 2'-O-methyl, idT end and other modifications, positions not given here)”, where the note is “Table 4”, the IC50 stood at 0.2 nM. Take “18 (UGAUCGGACAUAACAUUGUUGGGGUGUCAA; 2'-fluoro at CU, RNA at AG, backbone not given here) [compound 18]”: under setting [1], the IC50 amounted to 2.1 nM.

“19 (AUCGGACAUAACAUUGUUGGGGUGUCAA; 2'-fluoro at CU, RNA at AG, backbone not given here) [compound 19]”: the IC50 under setting [1] was 14.4 nM.

As to “20 (GAUGAUCGGACAUAACAUUGUUGGGGUGUCA; 2'-fluoro at CU, RNA at AG, backbone not given here) [compound 20]”, the IC50 under setting [1] amounted to 1.8 nM. Where the note is “Table 6”, “33 (AUGAUCGGACAUAACUAAUUAGGGGUGUCAA; aptamer; listed as RNA, chemistry not fully specified) [compound 33]” registered an IC50 of 0.21 nM.

As usually defined, the IC50 is the midpoint of a concentration-inhibition curve. A high value points to lower potency.
